In ChEMBL document CHEMBL5543162, “Discovery of a Novel Orally Bioavailable FLT3-PROTAC Degrader for Efficient Treatment of Acute Myeloid Leukemia and Overcoming Resistance of FLT3 Inhibitors” (J Med Chem, 2024):

Key:
[1] = Stability in dog liver microsomes assessed as intrinsic clearance; type: ADME, Canis lupus familiaris, Microsome; conditions: read-out: CLH
BaF3 = assay: Antiproliferative activity against mouse Ba/F3 cells expressing FLT3-ITD D835Y mutant incubated for 48 hrs by CCK8 assay; type: functional, cell-based; conditions: BaF3, 48 h
[2] = test system: Protein cereblon/Receptor-type tyrosine-protein kinase FLT3 (Homo sapiens), P36888+Q96SW2 [UNDEFINED MUTATION]; assay: PROTAC activity at CRBN/FLT3-ITD mutant in human MV4-11 cells assessed as decrease in STAT5 level at 20 nM by Western blot analysis; type: cell-based; conditions: time <= 12.0 hrs, TDE = time-dependent effect
Protein cereblon/Receptor-type tyrosine-protein kinase FLT3 (Homo sapiens), P36888+Q96SW2 [UNDEFINED MUTATION], sequence (P36888 whole entry, looked up, stated change not applied): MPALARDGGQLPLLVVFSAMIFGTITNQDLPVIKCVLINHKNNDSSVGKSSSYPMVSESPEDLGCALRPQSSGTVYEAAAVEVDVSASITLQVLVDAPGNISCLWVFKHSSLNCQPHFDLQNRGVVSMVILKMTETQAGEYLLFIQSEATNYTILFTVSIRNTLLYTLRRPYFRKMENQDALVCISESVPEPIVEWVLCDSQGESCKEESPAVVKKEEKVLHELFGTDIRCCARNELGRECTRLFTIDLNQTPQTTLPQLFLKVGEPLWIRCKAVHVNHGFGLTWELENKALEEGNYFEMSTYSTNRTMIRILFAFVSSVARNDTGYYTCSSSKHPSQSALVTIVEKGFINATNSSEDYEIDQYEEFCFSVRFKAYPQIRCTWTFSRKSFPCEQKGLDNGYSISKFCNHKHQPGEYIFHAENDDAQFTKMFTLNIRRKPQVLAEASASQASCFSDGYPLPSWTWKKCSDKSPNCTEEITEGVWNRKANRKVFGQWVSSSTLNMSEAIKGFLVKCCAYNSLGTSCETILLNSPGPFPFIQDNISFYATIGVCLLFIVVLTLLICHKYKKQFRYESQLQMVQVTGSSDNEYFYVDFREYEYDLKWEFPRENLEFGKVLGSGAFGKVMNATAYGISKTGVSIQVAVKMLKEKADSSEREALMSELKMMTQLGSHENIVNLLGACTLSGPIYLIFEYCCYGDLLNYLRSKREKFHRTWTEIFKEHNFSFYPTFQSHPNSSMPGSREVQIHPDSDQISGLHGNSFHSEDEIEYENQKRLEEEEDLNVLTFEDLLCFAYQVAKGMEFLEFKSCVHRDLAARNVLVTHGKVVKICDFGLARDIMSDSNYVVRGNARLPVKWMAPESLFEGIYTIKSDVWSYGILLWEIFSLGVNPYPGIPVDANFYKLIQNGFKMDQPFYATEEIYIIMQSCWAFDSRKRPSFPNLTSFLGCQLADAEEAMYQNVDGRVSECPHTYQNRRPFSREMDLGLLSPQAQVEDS
Protein cereblon/Receptor-type tyrosine-protein kinase FLT3 (Homo sapiens), P36888+Q96SW2 [UNDEFINED MUTATION], sequence (Q96SW2 whole entry, looked up, stated change not applied): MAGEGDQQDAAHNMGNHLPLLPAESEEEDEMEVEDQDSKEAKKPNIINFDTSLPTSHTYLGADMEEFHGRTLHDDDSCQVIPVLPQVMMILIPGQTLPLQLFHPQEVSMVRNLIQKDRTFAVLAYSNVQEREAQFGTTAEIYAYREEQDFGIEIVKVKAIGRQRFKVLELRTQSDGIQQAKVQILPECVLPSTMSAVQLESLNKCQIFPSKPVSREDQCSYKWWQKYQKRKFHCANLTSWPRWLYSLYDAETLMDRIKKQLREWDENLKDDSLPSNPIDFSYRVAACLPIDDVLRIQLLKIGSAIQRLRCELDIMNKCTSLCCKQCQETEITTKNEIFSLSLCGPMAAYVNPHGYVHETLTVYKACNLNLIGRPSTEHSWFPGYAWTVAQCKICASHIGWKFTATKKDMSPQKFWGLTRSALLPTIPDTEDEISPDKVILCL

[3] = Stability in Sprague-Dawley rat plasma at 50 ug/ml incubated upto 8 hrs by LC-MS/MS analysis; type: ADME, cell-free; conditions: at 50 µg/mL
[4] = test system: Protein cereblon/Receptor-type tyrosine-protein kinase FLT3 (Homo sapiens), P36888+Q96SW2 [UNDEFINED MUTATION]; assay: PROTAC activity at CRBN/FLT3-ITD mutant in human MOLM-13 cells assessed as decrease in S6K level incubated for 12 hrs by Western blot analysis; type: cell-based; conditions: dose <= 20.0 nM
[5] = Oral bioavailability in Sprague-Dawley rat at 10 mg/kg measured for 24 hrs by LC-MS/MS analysis; type: ADME, organism-based; conditions: in vivo
[6] = test system: Protein cereblon/Receptor-type tyrosine-protein kinase FLT3 (Homo sapiens), P36888+Q96SW2 [UNDEFINED MUTATION]; assay: PROTAC activity at CRBN/FLT3-ITD mutant in human MV4-11 cells assessed as protein degradation at 20 nM by Western blot analysis; type: cell-based; conditions: time <= 12.0 hrs, TDE = time-dependent effect

Structure (SMILES): Cc1c(NC(=O)CN2CCN(CC3CCN(c4ccc5c(c4)C(=O)N(C4CCC(=O)NC4=O)C5=O)CC3)CC2)c[nH]c1/C=C1\C(=O)Nc2ccc(F)cc21 (configuration not stated)
- CLint scaled [1]: 17.7 mL/min/kg
- IC50 (BaF3): 31.3 nM
- Activity [2]: Tde
- Stability [3]: Stable
- Activity [4]: Dose-Dependent Effect
- bioavailability [5]: 53%
- Activity [6]: Tde
